Data taken from patent publication US11179348B2, “Combination comprising pterostilbene for the treatment of cancer” (FUNDACIÓN UNIVERSIDAD CATÓLICA DE VALENCIA SAN VICENTE …, priority 2015, dated 2021).
Marks after values point to notes of the source that are not given here.

How the values were obtained:
Parameters in all cases: species or system human
[1] = test system: PC-3 prostate adenocarcinoma; test: In vivo growth of PC-3 prostate cancer xenografts; conditions: PC-3, day 21
[2] = test system: AsPC-1 pancreatic cancer cells; test: Nrf2- and redox state-related enzyme activities and metabolites in AsPC-1 cells growing in vivo; conditions: AsPC-1, in vivo +Pter, day 28
Protocol: (§1) To measure enzyme activity, isolated tumor cells were homogenized in 0.1 M phosphate buffer (pH 7.2) at 4° C. GCL and GSS activities were measured as described previously (Obrador, E. et al. Hepatology 35, 74-81 (2002)). GPX (selenium dependent) activity was measured as described by Flohé and Gunzler (Flohe, L. & Gunzler, W. A. Methods Enzymol 105, 114-121 (1984)) using H2O2 as a substrate. GSR activity was determined as described by Akerboom and Sies (Akerboom, T. P. et al, Bull Eur Physiopathol Respir 17 Suppl, 221-227 (1981)). GGT activity was measured as described previously (Obrador, E. et al. Hepatology 35, 74-81 (2002)). GST activity was measured using an assay kit from Sigma. TXNRD activity, defined by the concentration of sodium-lipoate (disulfide) reduced to dehydrolipoate (dithiol) per milligram protein, was measured as previously described (Javvadi, P. et al. Cancer Res 70, 1941-1950 (2010)). SOD activity was measured as described by Flohé and Otting (Flohe, L. & Otting, F. Methods Enzymol 105, 93-104 (1984).) using 2 mM cyanide in the assay medium to distinguish mangano-type enzyme (SOD2) from the cuprozinc type (SOD1). CAT activity was analyzed as described by Aebi (Aebi, H. Methods Enzymol 105, 121-126 (1984)). NOX activity was measured by chemiluminescence following the methodology of Wind et al. (Wind, S. et al. Comparative pharmacology of chemically distinct NADPH oxidase inhibitors. Br J Pharmacol 161, 885-898 (2010)). Protein concentration was determined with the Pierce BCA protein assay (Fisher Scientific, Waltham, Mass.). […]
(§2) GSH, GSSG, NADP^+ and NADPH Determination.
(§3) GSH and GSSG were determined, following procedures previously described (Obrador, E. et al. PLoS One 9, e96466 (2014)), by LC/MS using the same equipment described above for pterostilbene determination. Cell processing was performed according to published methodology, where rapid N-ethylmaleimide derivatization was used to prevent GSH auto-oxidation (Asensi, M. et al. Anal Biochem 217, 323-328 (1994)). NADP^+ and NADPH were quantitated using an assay kit from Sigma (St. Louis, Mo.).

[3] = test system: BxPC-3 pancreatic cancer cells; test: Nrf2- and redox state-related enzyme activities and metabolites in BxPC-3 cells growing in vivo; conditions: BxPC-3, in vivo +Pter, day 35
Protocol: as §1
Quantitative measurement of H2O2 and flow cytometry determination of O2^⋅− generation were performed as previously described (Benlloch, M. et al. J Biol Chem 281, 69-79 (2006)).
as §2, §3

In the case of COc1cc(/C=C/c2ccc(O)cc2)cc(OC)c1 [Pter, trans-3,5-dimethoxy-4′-hydroxystilbene], the Tumor vol. [1] is reported as 276 ± 74* mm^3, the CAT [2] is reported as 1.2 ± 0.3 mU/10^6 cells and the G6PDH [2] is reported as 317 ± 84 mU/10^6 cells. It also gave a GCL [2] of 85 ± 27 mU/10^6 cells, a GGT [2] of 27.5 ± 7.4 mU/10^6 cells and a GPX [2] of 15.0 ± 2.6 mU/10^6 cells. The GSH [2] was 10.4 ± 2.0 nmol/10^6 cells, the GSH/GSSG [2] was 35 ± 6 and the GSR [2] was 5.5 ± 1.2 mU/10^6 cells. It also gave a GSS [2] of 12.4 ± 2.7 mU/10^6 cells, a GSSG [2] of 0.3 ± 0.1 nmol/10^6 cells and a GST [2] of 8.0 ± 1.5 mU/10^6 cells. For the same compound, the H2O2 [2] was 1.4 ± 0.3 nmol/10^6 cells × min, the IDH [2] was 1.0 ± 0.3 U/10^6 cells and the ME [2] was 55 ± 15 mU/10^6 cells. For the same compound, the NADPH [2] was 0.05 ± 0.02 nmol/mg prot, the “NADPH/NADP^+” value [2] was 1.7 ± 0.4 and the “NADP^+” value [2] was 0.03 ± 0.01 nmol/mg prot. For the same compound, the NOX [2] was 115 ± 33 R.L.U./10^6 cells, the “O2′−” value [2] was 8.4 ± 2.4 ΔFL1, a.u and the SOD1 [2] was 0.2 ± 0.05 U/10^6 cells. The SOD2 [2] was 0.05 ± 0.02 U/10^6 cells, the TXN [2] was 0.3 ± 0.15 μg/10^6 cells and the TXNRD [2] was 0.7 ± 0.2 U/10^6 cells. The CAT [3] was 1.0 ± 0.2 mU/10^6 cells, the G6PDH [3] was 264 ± 56 mU/10^6 cells and the GCL [3] was 36 ± 15 mU/10^6 cells. The GGT [3] was 19.7 ± 3.7 mU/10^6 cells, the GPX [3] was 9.2 ± 2.0 mU/10^6 cells and the GSH [3] was 3.7 ± 1.1 nmol/10^6 cells. For the same compound, the GSH/GSSG [3] was 12 ± 4, the GSR [3] was 2.3 ± 0.7 mU/10^6 cells and the GSS [3] was 4.0 ± 1.3 mU/10^6 cells. For the same compound, the GSSG [3] was 0.3 ± 0.1 nmol/10^6 cells, the GST [3] was 3.2 ± 1.0 mU/10^6 cells and the H2O2 [3] was 1.3 ± 0.2 nmol/10^6 cells × min. For the same compound, the IDH [3] was 1.7 ± 0.5 U/10^6 cells, the ME [3] was 40 ± 7 mU/10^6 cells and the NADPH [3] was 0.03 ± 0.01 nmol/mg prot. The “NADPH/NADP^+” value [3] was 0.6 ± 0.2, the “NADP^+” value [3] was 0.05 ± 0.005 nmol/mg prot and the NOX [3] was 89 ± 25 R.L.U./10^6 cells. The “O2′−” value [3] was 5.9 ± 1.7 ΔFL1, a.u, the SOD1 [3] was 0.1 ± 0.05 U/10^6 cells and the SOD2 [3] was 0.05 ± 0.02 U/10^6 cells. For the same compound, the TXN [3] was 0.2 ± 0.1 μg/10^6 cells and the TXNRD [3] was 0.8 ± 0.2 U/10^6 cells.
